Holding throughout (type): physicochemical
Data set [1] is described as follows: Photolytic (UV-B) stability of aqueous compositions of latanoprost. The following applies: SAE-CD 1% or 5% w/v, pH 6.7, UV-B, compared to a solution excluding SAE-CD. The procedure: Latanoprost was measured in weighing boats (size 4×12×4 mm) by using a microbalance. The boats were put into 50 mL volumetric flask and 100 mM isotonic phosphate buffer (pH 6.7) was added to the flask. The flask was shaken, sonicated and vortexed over an hour. The solution was filtered through a PVDF filter with 20 mL of plastic syringe. SBE-β-CD 0, 1, 5% w/v and BAK 0.02% w/v were measured into each 10 mL volumetric flask and the filtered latanoprost solution were added to them. The flasks were shaken for a few minutes at R.T, and then these solutions and XALATAN® were put into quartz vessels. The Rayonet photochemical chamber reactor was used for the irradiation with RMR-3000A lamp. At various time points, the latanoprost in the aliquots was assayed by HPLC, and the solution pH's were measured before and after the light irradiation.

A short description of data set [2]: Phase solubility of latanoprost in the presence of SBE-β-CD (CAPTISOL). The following applies: for pH: filtered supernatant. The procedure: SAE-CD increases the aqueous solubility of latanoprost. The phase solubility curve (FIG. 1) for latanoprost in the presence of SBE-β-CD (CAPTISOL®) was obtained according to Example 5. The intrinsic solubility of latanoprost in water, and in the absence of any solubilizing agent, is about 40 μg/mL. The invention provides a method of increasing the solubility of latanoprost in an aqueous composition, the method comprising including SAE-CD and latanoprost in the aqueous composition, wherein the molar ratio of SAE-CD to latanoprost, pH, concentration of SAE-CD, and concentration of latanoprost are as defined herein. In some embodiments, the SAE-CD increases the aqueous solubility of latanoprost by at least 10-fold.
Aqueous compositions containing latanoprost and different amounts of SBE-β-CD were prepared. Latanoprost (1 mg was measured into aluminum weighing boats (size 4×12×4 mm) by using a microbalance. The boats were put into the amber glass vials (Kimble vial, 1 dram) with Teflon-lined screw caps. Using a Rainin pipetman, 2.0 mL of SBE-β-CD test solution (0, 5, 10, or 20% w/v) were added to each vial. Each vial was capped, vortexed, placed on a rocker platform and gently mixed at room temperature. After 24 hours, the test vials were removed from the rocker platform, the solutions were centrifuged at 2500 rpm for 5 min, and the supernatants were filtered through 0.22 micron Millipore PVDF Millex-GV filters and the pH measured. The latanoprost in the aliquots was assayed by HPLC.

A short description of data set [3]: Hydrolytic stability of aqueous compositions of latanoprost at 60° C. The following applies: compared to a solution excluding SAE-CD. On the procedure:
Latanoprost was measured in weighting boats (size 4×12×4 mm) by using a microbalance. The boats were put into 50 mL volumetric flask and 10 mM or 100 mM isotonic phosphate buffer (pH 5.5, 6.7 and 8.0) was added to the flask. The flask was shaken, sonicated and vortexed over an hour. The solution was filtered through a PVDF filter with 20 mL of plastic syringe. SBE-β-CyD 0, 1, 2.5, 5% w/v or BAK 0.02% were measured into 6-dram amber vials, and the filtered latanoprost solution (12 mL) was added to each vials. The vials were shaken for a few minutes at R.T, and then there were kept at 60° C. At various time points, the latanoprost in the aliquots was assayed by HPLC and the solution pH's were measured.

Like-named read-outs stand apart in the source and are kept apart here.

In the case of `CC(C)OC(=O)CCC/C=C\C[C@@H]1[C@@H](CC[C@@H](O)CCc2ccccc2)[C@H](O)C[C@@H]1O` [Latanoprost, isopropyl (Z)-7-[(1R,2R,3R,5S)-3,5-dihydroxy-2-[(3R)3-hydroxy-5-phenylpentyl]-cyclopentyl]hept-5-enoate], the “photolytic degradation of latanoprost” value in data set [1] is reported as “sufficient to suppress photolytic degradation”. The solubility (as a rule, the dissolved amount per volume that the medium holds) at 24 h in data set [2] (aqueous 5% w/v SBE-β-CD (CAPTISOL) solution, pH 7.41, aqueous with cosolvent or surfactant or cyclodextrin, thermodynamic from solid, with 5% w/v CAPTISOL, room temperature, 24 hours, read-out: Latanoprost (solubility)) is more than 500 µg/mL; in data set [2] (aqueous 10% w/v SBE-β-CD (CAPTISOL) solution, pH 6.93, aqueous with cosolvent or surfactant or cyclodextrin, thermodynamic from solid, with 10% w/v CAPTISOL, room temperature, 24 hours, read-out: Latanoprost (solubility)), more than 500 µg/mL; in data set [2] (aqueous SBE-β-CD (SAE-CD, CAPTISOL) solution, aqueous with cosolvent or surfactant or cyclodextrin, thermodynamic from solid, solutions containing at least 5% w/v of SAE-CD, read-out: solubility of latanoprost) it was more than 500 µg/mL; in data set [2] (aqueous test solution without SBE-β-CD (0% w/v), pH 8.57, water, thermodynamic from solid, without CAPTISOL, room temperature, 24 hours, read-out: Latanoprost (solubility)), 40 µg/mL. The pH in data set [2] (with 5% w/v CAPTISOL) was found to be 7.41; in data set [2] (with 10% w/v CAPTISOL), 6.93; in data set [2] (without CAPTISOL) it was 8.57. In data set [2] (water, thermodynamic from solid, in the absence of any solubilizing agent, read-out: intrinsic solubility of latanoprost in water), the solubility is approximately 40 µg/mL. Besides, the “hydrolytic degradation of latanoprost” value in data set [3] (SAE-CD 1% or 5% w/v, pH 5.5 and 6.7, 60° C.) was “sufficient to suppress hydrolytic degradation”; in data set [3] (SAE-CD, pH 8, 60° C.), “substantially reduce hydrolytic degradation”.
